Experimental data: patent US20080075786A1, “Antimicrobial agents derived from cream” (Universite de Montreal, priority 2006, published 2008)
Where two headings read alike, the source gives them in different places.

What was measured:
A. fumigatus = test: Antifungal assay against A. fumigatus (optical density at 630 nm); assay type: cell-based
Protocol: (§1) Fractionation of Blackcurrant Seed Oil. Journal of the American Oil Chemists Society 65: 755-760). […] Under constant stirring, the mixture was heated to 75° C., or until it became clear, and then cooled slowly to 2° C. After completion of urea crystallization at 2° C. (15 h), the UFFA enriched methanol phase was separated from the urea crystals by centrifugation (5 min) at 1000×g. […] Yields were determined gravimetrically. […] UV detection was used to monitor effluent at 215 nm. Water (10 ml) was added to each of the 45 collected HPLC fractions, and they were then extracted three times with hexane (3×10 ml). […] Antifungal assay using commercial FFA were done in quadruplicates. The antifungal activity was evaluated in 96-well microtiter plates (Costar 3595) using Sabouraud as incubating medium for A. fumigatus and dextrose-free Sabouraud for C. albicans. Spores of A. fumigatus (Jeanine Joly, Université de Montréal) were germinated at 25° C. on slant agar Sabouraud media. They were harvested by washing vigorously slant cultures with 5 ml of 0.9% NaCl. Coarse debris were removed by filtrating the Aspergillus spores suspension through a sterile cotton plugs inserted into a Pasteur pipet. Monodisperse spores suspensions were obtained following brief sonications in a water bath sonicator (Branson 1210). […] Blastospores of the C. albicans SC5314 strain were prepared as for germination inhibition assays (see above). […] Wells were washed three times with Sabouraud before optical reading.

[1] = system: C. albicans SC5314 strain; test: Antifungal assay against C. albicans (optical density at 630 nm); assay type: cell-based, Candida albicans; settings: Candida albicans, SC5314, 40 h, dextrose-free Sabouraud, 37° C., commercial FFA
Protocol: as §1

[2] = Cytotoxicity assay (LDH release); settings: human
Protocol: Cytotoxicity was evaluated using Peripheral Blood Mononuclear cells (PBMC) of volunteers donors (Royal Victoria Hospital, Montreal). These cells were purified by the ficoll-Paque PLUS according to the manufacturer (Amersham-Bioscience). PBMC were used at a density of 100 000 cells/ml in RPMI 1640 (Sigma) supplemented with 10% heat-inactivated fetal bovine serum, 0.3 g/L of L-glutamine, 2 g/L sodium carbonate, 100 U/ml of penicillin and 100 μg/ml of streptomycin (Sigma). Assays were done in 96-well microtiter plates (Costar 3595) and the cytotoxicity was evaluated after 24 hours of incubation at 37° C. in a 5% CO2 atmospheric incubator using the LDH Cytotoxicity detection kit, according to the manufacturer (Roche Diagnostic). […] FFA were diluted in ethanol (96%) and no more than 1% ethanol (final concentration) was used in assays. Ethanol (1%) was used as negative control.
This method measures the release of lactate dehydrogenase (LDH) from the cytosol of damaged cells into the supernatant (Roche Diagnostic).

[3] = system: Candida albicans SC5314 strain; test: Germination inhibition assay (antihyphal growth activity); assay type: cell-based; settings: for activity at inhibiting C. albicans germination: individual commercial free fatty acids, highest concentration used 81 μM
Protocol: The Candida albicans SC5314 strain (Fonzi, W. A. and Irwin, M. Y. 1993. Isogenic strain construction and gene mapping in Candida albicans. Genetics 134: 717-728.) was used to investigate the antihyphal activity of whey cream lipids. This strain was routinely grown as yeast cells at 30° C. in YPD medium (1% yeast extract, 2% peptone, 2% dextrose). Germination was induced by incubating cells in dextrose-free Sabouraud (Difco; Joshi, K. R., Gavin, J. B., and Bremner, D. A. 1973. The formation of germ tubes by Candida albicans in various peptone media. Sabouraudia. 11: 259-262.) at 37° C. in 96-wells microtiter plates (Costar 3595). Briefly, cells from fresh YPD cultures were harvested and washed twice with sterile water. Washed cells were suspended in dextrose-free Sabouraud at a density of 5×10^3 cells/ml and then immediately distributed to microtiter wells containing an equal volume of dextrose-free Sabouraud supplemented with different concentrations of lipids. After 15 h incubation at 37° C. in an atmospheric incubator without agitation, cells were washed and fixed with a fresh 1% formaldehyde solution. The ability of lipids to inhibit germination was determined by microscopic observations.

[4] = system: C. albicans reporter strain ZK3379 (HWP1-lacZ); settings: for Relative beta-galactosidase expression (filamentous growth): 18 h, 37° C., percentage of control cultures without fatty acids
Protocol: The effects of fatty acids gamma-linolenic acid and alpha-linolenic acid on filamentous growth of Candida albicans were determined in a filamentation assay. C. albicans reporter strain ZK3379 (HWP1-lacZ; Hogan et al., 2004) was propagated in yeast extract-peptone-dextrose (YPD) for 24 h at 30° C. Prior to the assay, cells were washed twice with phosphate-buffered saline (PBS 1×). Flasks (125 ml) containing 10 ml of prewarmed RPMI 1640/20 mM MOPS (pH 7.0) were inoculated with washed cells at a final concentration of 10^6 cells per ml. Working solutions of fatty acids (25 mM and 6.25 mM) were prepared freshly in ethanol 70%. Fatty acids were diluted in medium at final concentrations of 100 μM and 25 μM. An equal volume (40 μl) of ethanol 70% was added to control cultures. In all cultures, the final concentration of ethanol was 0.4% (v/v). Flasks were incubated at 37° C. for 18 h with shaking (ca. 200 RPM). Cells were collected by filtration (Millipore, 0.45 μm) and washed with PBS 1×. beta-galactosidase was assayed according to the method of Rose and Botstein (1983), where crude protein extracts are prepared and the activity is normalized to the amount of protein assayed. Relative amounts of beta-galactosidase activity were used as a measure of the amount of filamentous growth.

[5] = system: Candida albicans ZK3379 strain (CAI-4 HWP1-lacZ); test: C. albicans HWP1-lacZ beta-galactosidase and XTT assays (kinetics of germination inhibition in hyphae inducing media); assay type: cell-based; settings: for germ tube emergence and elongation: all inducing conditions tested (dextrose-free Sabouraud, Lee's, Spider, HFM7), 0-6 h (FIG. 2)
Protocol: Candida albicans ZK3379 strain (CAI-4 HWP1-lacZ; Hogan, D A, Vik A, Kolter R (2004). A Pseudomonas aeruginosa quorum-sensing molecule influences Candida albicans morphology. Mol Microbiol 54: 1212-1223.) was used for beta-galactosidase and XTT assays. Cells from this strain were grown in YPDA at 30° C. to a density of about 1×10^8 cells/ml (hemacytometer). These late exponentially growing cells were then washed twice with water and kept on ice until used. Germination was induced by incubating cells (final density of 5×10^5 cells/ ml) at 37° C. in 2.5 ml of either dextrose-free Sabouraud (Joshi et al., 1973), Lee's (Lee K L, Buckley H R, Campbell C C (1975). An amino acid liquid synthetic medium for the development of mycelial and yeast forms of Candida albicans. Sabouraudia 13: 148-153, Spider (Liu H, Kohler J, Fink Gr (1994). Suppression of hyphal formation in Candida albicans by mutation of a STE12 homolog. Science 266: 1723-1726 or Hypha-Forming Media (Biswas S K, Yokoyama K, Kamei K, Nishimur K, Miyaji M (2001) Inhibition of hyphal growth of Candida albicans by activated lansoprazole, a novel benzimidazole proton pump inhibitor Med Mycol 39: 283-285.), supplemented with FFAs. All lipids were dissolved in ethanol. Assays were performed in duplicate in 24-wells mictotiter plates (Costar 3526) without agitation. After appropriate incubation times (i.e. 0, 2, 4 or 6 h), microtiter plates were centrifuged for 5 min at 2000 rpm (Jouan inc. CR3i) and supernatents, discarded. XTT assays were done immediately and essentially as described (Honraet K, Goetghebeur E, Nelis H J (2005). Comparison of three assays for the quantification of Candida biomass in suspension and CDC reactor grown biofilms. J Microbiol Methods 63: 287-295). For beta-galactosidase assays, microtiter plates were frozen at −80° C. and processed later as described (Kippert F (1995). A rapid permeabilization procedure for accurate quantitative determination of beta-galactosidase activity in yeast cells. FEMS Microbiol Lett 128: 201-206; Hogan et al., 2004) but directly in microtiters plates. Absorbances were measured in 96-well microtiters plates using a microtiter plate reader (Microplate Reader MR600), equipped with filters of 410 nm (beta-galactosidase) and 490 nm (XTT), respectively.
As inhibition of germination of C. albicans by molecules could be the result of early and/or late blocking events, a more comprehensive analysis of the activity of free fatty acids was performed using multiple time points and other germ tube inducing media. Therefore, germination was monitored at 0, 2, 4 and 6 h in dextrose-free Sabouraud, Lee's, Spider and HFM7 (i.e. serum) media using the C. albicans HWP1-lacZ assay: beta-galactosidase measurements should reflect the morphological change from yeast cells to hyphal growth (Hogan et al., 2004). beta-galactosidase results were normalized using the XTT assay (Honraet et al., 2005) to correct for biomass increase. Microscopic observations of cells after 6 h incubation are also presented for each inducing conditions and correlated with beta-galactosidase data (FIG. 2).

mammalian cells = test: Toxicity for mammalian cells in vitro; assay type: cell-based; settings: thousand fold less concentrated solution than 10 mM; Bergsson et al., 2001; data not shown
C. albicans yeast cells = settings: 10 mM; cited from earlier work
[6] = Candida albicans, SC5314, 15 h, read-out: MIC, antihyphal growth activity of individual free fatty acids
[7] = Candida albicans, SC5314, read-out: MIC, antihyphal growth activity of individual free fatty acids
[8] = Candida albicans, SC5314, commercial free fatty acids, complete inhibition of germination, 15 h, 37° C., gravimetrical quantification, read-out: MIC, antihyphal growth activity of individual free fatty acids
[9] = Candida albicans, SC5314, same MIC in μg/ml (in brackets), commercial free fatty acids, gravimetrical quantification, read-out: MIC, antihyphal growth activity of individual free fatty acids
[10] = commercial free fatty acids, complete inhibition of germination, 15 h, 37° C., gravimetrical quantification, read-out: MIC, antihyphal growth activity of individual free fatty acids

CC(C)CCCCCCCCCC(=O)O [12-methyldodecanoic acid (C13:0 i)]
IC50 (A. fumigatus; Aspergillus fumigatus, 40 h, Sabouraud, 30° C., commercial FFA): ~283 µM | IC50 [1]: ~49 µM | CC50 at 24 h [2]: 70 µM

CCCCCCCCCCCCCCCC(=O)O [16:0, palmitic acid, reference compound]
MIC [3, 6]: > 81 µM | MIC [3, 7]: > 20.8 µg/mL | activity at inhibiting C. albicans germination [3]: inactive

CCCCC/C=C\C/C=C\C/C=C\CCCCC(=O)O [gamma-linolenic acid (C18:3n-6), gamma-linolenic acid]
IC50 (A. fumigatus; Aspergillus fumigatus; Sabouraud, 30° C., 40 h; commercial FFA): 13.4 µM | IC50 [1]: 2.34 µM | Relative beta-galactosidase expression (filamentous growth) ([4]; 25 μM): 5.9 (±6.8) % | Relative beta-galactosidase expression (filamentous growth) ([4]; 100 μM): 0.5 (±0.7) % | germination of C. albicans ([4]; 100 μM, RPMI 1640/20 mM MOPS (pH 7.0), HWP1-LacZ strain): completely inhibited | antifungal activity in RPMI 1640/20 mM MOPS media ([4]; 100 μM, data not shown): not detected | CC50 at 24 h ([2]; Toxicity (TC50) PBMCs): 41 µM

CCCCCCCCCCCCCC(=O)O [14:0, myristic acid, reference compound]
MIC [3, 6]: > 81 µM | MIC [3, 7]: > 18.5 µg/mL | activity at inhibiting C. albicans germination [3]: inactive

CCCCCCCCCCCC(=O)O [12:0, lauric acid]
MIC [3, 8]: 9 µM | MIC [3, 9]: 1.8 µg/mL | MIC [3, 10]: 9 µM | germ tube emergence and elongation [5]: completely inhibited the emergence of germ tubes | toxicity for mammalian cells in vitro (mammalian cells): not toxic | killing C. albicans yeast cells (C. albicans yeast cells): highly active

CCCCCC/C=C\CCCCCCCC(=O)O [16:1(n-7), palmitoleic acid]
MIC [3, 8]: 9 µM | MIC [3, 9]: 2.29 µg/mL | MIC [3, 10]: 9 µM | toxicity for C. albicans blastospores ([5]; Lee's medium, data not shown): toxic | appearance of germ tubes ([5]; Spider and HFM7 media): partially inhibited the appearance of germ tubes

CCCCC/C=C\C/C=C\C/C=C\C/C=C\CCCC(=O)O [20:4(n-6), arachidonic acid]
MIC [3, 8]: 27 µM | MIC [3, 9]: 8.22 µg/mL | MIC [3, 10]: 27 µM | appearance of germ tubes ([5]; Spider and HFM7 media): partially inhibited the appearance of germ tubes | appearance of germ tubes ([5]; dextrose-free Sabouraud and Lee's inducing media): strongly inhibited the appearance of germ tubes

conjugated linoleic acid [18:2(CLA 9c-11t)]
MIC [3, 10]: 9 µM | MIC, antihyphal growth activity of individual free fatty acids ([3]; same MIC in μg/ml (in brackets), commercial free fatty acids, gravimetrical quantification): 2.52 µg/mL | germ tube emergence and elongation [5]: produced germ tubes (2-4 h), but their further elongation was blocked

CCCCCCCCCCCCCCCCC(=O)O [17:0, heptadecanoic acid, reference compound]
MIC [3, 8]: > 81 µM | MIC [3, 9]: > 21.9 µg/mL | activity at inhibiting C. albicans germination [3]: inactive

CCCCC/C=C\C/C=C\CCCCCCCC(=O)O [18:2(n-6), linoleic acid]
MIC [3, 8]: 81 µM | MIC [3, 9]: 22.7 µg/mL | MIC [3, 10]: 81 µM | germ tube emergence and elongation [5]: produced germ tubes (2-4 h), but their further elongation was blocked

CCCCCCCC/C=C\CCCCCCCC(=O)O [18:1(n-9), oleic acid, reference compound]
MIC [3, 6]: > 81 µM | MIC [3, 7]: > 18.5 µg/mL | activity at inhibiting C. albicans germination [3]: no or weak activity | activity against the germination of C. albicans ([5]; all inducing media but HFM7): weak or no activity

CCCCCCCCCCCCCCCCCC(=O)O [18:0, stearic acid, reference compound]
MIC [3, 6]: > 81 µM | MIC [3, 7]: > 23 µg/mL | activity at inhibiting C. albicans germination [3]: inactive

CCCCCCCCCCCCCCC(=O)O [15:0, pentadecanoic acid, reference compound]
MIC [3, 8]: > 81 µM | MIC [3, 9]: > 19.6 µg/mL | activity at inhibiting C. albicans germination [3]: inactive
